The subject of data set [1] is Rattus norvegicus. Put plainly: Toxicity in overnight fasted albino Wistar rat assessed as body weight at 300 mg/kg, po administered as single dose followed by fasting for 3 hrs measured on day 7 post dose (reference value: 175 +/- 10 g). It is filed as organism-based. Conditions: in vivo.
Data set [2] concerns Rattus norvegicus. Put plainly: Toxicity in overnight fasted albino Wistar rat assessed as body weight at 5000 mg/kg, po administered as single dose followed by fasting for 3 hrs measured on day 5 post dose (reference value: 172 +/- 14 g). The data set is classed as organism-based. Conditions: in vivo.
The subject of data set [3] is Rattus norvegicus. Put plainly: Toxicity in overnight fasted albino Wistar rat assessed as body weight at 2000 mg/kg, po administered as single dose followed by fasting for 3 hrs measured on day 11 post dose (reference value: 185 +/- 8 g). The data set is classed as organism-based. Conditions: in vivo.
The test system of data set [4] is Rattus norvegicus. Put plainly: Toxicity in overnight fasted albino Wistar rat assessed as body weight at 2000 mg/kg, po administered as single dose followed by fasting for 3 hrs measured on day 13 post dose (reference value: 188 +/- 16 g). It is filed as organism-based. Conditions: in vivo.
Data set [5] deals with Rattus norvegicus. Put plainly: Toxicity in overnight fasted albino Wistar rat assessed as body weight at 2000 mg/kg, po administered as single dose followed by fasting for 3 hrs measured on day 9 post dose (reference value: 180 +/- 12 g). It is filed as organism-based. Conditions: in vivo.
The subject of data set [6] is Rattus norvegicus. Description: Toxicity in overnight fasted albino Wistar rat assessed as body weight at 300 mg/kg, po administered as single dose followed by fasting for 3 hrs measured on day 2 post dose (reference value: 165 +/- 12 g). The data set is classed as organism-based. The following applies: in vivo.
Data set [7] concerns Rattus norvegicus. Put plainly: Toxicity in overnight fasted albino Wistar rat assessed as body weight at 300 mg/kg, po administered as single dose followed by fasting for 3 hrs measured on day 10 post dose (reference value: 182 +/- 15 g). The following applies: in vivo. It is filed as organism-based.
Data set [8] can be described thus: Antiproliferative activity against human MCF7/MX cells after 72 hrs by MTT assay. The data set is classed as functional, cell-based.
Data set [9] concerns 2008. Description: Antiproliferative activity against human 2008 cells after 72 hrs by MTT assay. It is filed as functional, cell-based. The following applies: Homo sapiens, 2008, 72 h.
Data set [10] concerns Rattus norvegicus. Description: Toxicity in overnight fasted albino Wistar rat assessed as body weight at 5000 mg/kg, po administered as single dose followed by fasting for 3 hrs measured on day 7 post dose (reference value: 175 +/- 10 g). It is filed as organism-based. Conditions: in vivo.
In data set [11] the test system is Rattus norvegicus. Put plainly: Toxicity in overnight fasted albino Wistar rat assessed as body weight at 2000 mg/kg, po administered as single dose followed by fasting for 3 hrs measured on day 10 post dose (reference value: 182 +/- 15 g). It is filed as organism-based. The following applies: in vivo.
In data set [12] the test system is Rattus norvegicus. Description: Toxicity in overnight fasted albino Wistar rat assessed as body weight at 5000 mg/kg, po administered as single dose followed by fasting for 3 hrs measured on day 14 post dose (reference value: 191 +/- 18 g). The data set is classed as organism-based. The following applies: in vivo.
The test system of data set [13] is Rattus norvegicus. Description: Toxicity in overnight fasted albino Wistar rat assessed as body weight at 2000 mg/kg, po administered as single dose followed by fasting for 3 hrs measured on day 3 post dose (reference value: 166 +/- 10 g). The data set is classed as organism-based. Conditions: in vivo.
Data set [14] deals with Rattus norvegicus. Put plainly: Toxicity in overnight fasted albino Wistar rat assessed as body weight at 300 mg/kg, po administered as single dose followed by fasting for 3 hrs measured on day 13 post dose (reference value: 188 +/- 16 g). It is filed as organism-based. Conditions: in vivo.
The test system of data set [15] is Rattus norvegicus. Put plainly: Toxicity in overnight fasted albino Wistar rat assessed as body weight at 2000 mg/kg, po administered as single dose followed by fasting for 3 hrs measured on day 2 post dose (reference value: 165 +/- 12 g). The data set is classed as organism-based. The following applies: in vivo.
Data set [16] has as its system Rattus norvegicus. Put plainly: Toxicity in overnight fasted albino Wistar rat assessed as body weight at 300 mg/kg, po administered as single dose followed by fasting for 3 hrs measured on day 6 post dose (reference value: 173 +/- 12 g). The data set is classed as organism-based. The following applies: in vivo.
The nature of data set [17]: Cytotoxicity against African green monkey Vero cells after 72 hrs by MTT assay. The following applies: chlorocebus sabaeus. It is filed as cell-based. For orientation: Formazan colour is commonly taken as a measure of viable cells.
In data set [18] the test system is Rattus norvegicus. Description: Toxicity in overnight fasted albino Wistar rat assessed as body weight at 2000 mg/kg, po administered as single dose followed by fasting for 3 hrs measured on day 8 post dose (reference value: 177 +/- 8 g). It is filed as organism-based. The following applies: in vivo.
Data set [19] has as its system A549. Put plainly: cells. The following applies: Homo sapiens, A549, 72 h.
Description: Antiproliferative activity against human A549 cells after 72 hrs by MTT assay
Data set [20] deals with Rattus norvegicus. Description: Toxicity in overnight fasted albino Wistar rat assessed as body weight at 5000 mg/kg, po administered as single dose followed by fasting for 3 hrs measured on day 12 post dose (reference value: 186 +/- 13 g). The data set is classed as organism-based. The following applies: in vivo.
In data set [21] the test system is Rattus norvegicus. Description: Toxicity in overnight fasted albino Wistar rat assessed as body weight at 2000 mg/kg, po administered as single dose followed by fasting for 3 hrs measured on day 12 post dose (reference value: 186 +/- 13 g). It is filed as organism-based. The following applies: in vivo.
The subject of data set [22] is Rattus norvegicus. Description: Toxicity in overnight fasted albino Wistar rat assessed as body weight at 300 mg/kg, po administered as single dose followed by fasting for 3 hrs measured on day 5 post dose (reference value: 172 +/- 14 g). It is filed as organism-based. Conditions: in vivo.
Data set [23] has as its system Rattus norvegicus. Put plainly: Toxicity in overnight fasted albino Wistar rat assessed as clinical signs at 300 to 5000 mg/kg, po administered as single dose followed by fasting for 3 hrs measured for every 1 hr up to 12 hrs on first day of dosing and thereafter twice in a day for 14 days. The data set is classed as organism-based. The following applies: in vivo.

What is called IC50 is the point on the concentration scale where inhibition reaches its midpoint. What is called CC50 is the concentration giving 50% cytotoxicity.

As to `COC(=O)c1c(C)nc(NNC(=O)c2cccc3c(=O)c4ccccc4[nH]c23)nc1-c1ccc(OC)c(OC)c1`, the Activity in [1] came out at 191 g; in data set [2], 198 g; in data set [3], 205 g; in [4] it was 209 g; in [5], 199 g; in [6], 183 g. For the same compound, the Activity in data set [7] was 193 g; in [10] it was 206 g; in [11] it was 202 g; in [12] it was 228 g; in [13], 186 g; in data set [14], 204 g. Moreover, the Activity is recorded as 184 g in data set [15]; 190 g in [16]; 197 g in [18]; 221 g in data set [20]; 206 g in data set [21]; 188 g in data set [22]. In data set [23], the Activity entry was “Non-Toxic”. For the same compound, the concentration for half-maximal inhibition (IC50) came to 78 µM in data set [8], 26 µM in data set [9] and 29.1 µM in data set [19]. It took 85.7 µM to reach half-maximal cytotoxicity in data set [17] (CC50 at 72 h).
